Measured values published in patent publication US20260055118A1, “VISIBLE LIGHT SENSITIVE PHOTOREMOVABLE PROTECTING GROUPS, PREPARATION PROCESS THEREOF, PHOTOACTIVATABLE CONJUGATES COMPRISING THEM AND USES THEREOF” (HUN-REN TERMÉSZETTUDOMÁNYI KUTATÓKÖZPONT, priority 2022, published 2026).

Columns and labels:
Format in all cases: physicochemical
[1] = Uncaging quantum yield determination relative to BODIPY reference; settings: for ε × Φu, uncaging cross-section / quantum efficiency: at the wavelength in parentheses beside each value (538-660 nm); for Φu, uncaging quantum yield: calculated from active agent release; for Φu, uncaging quantum yield / Φdeg, degradation quantum yield: green light irradiation; for Φdeg, degradation quantum yield: calculated from the disappearance of the target conjugate
Protocol: The relative photochemical quantum yields of the uncaging reactions together with the degradation quantum yields were determined from the results of the quantitative HPLC-UV experiments. In all cases, green light irradiation was used since all target conjugates absorbed in this range as well as the reference BODIPY. The photochemical quantum yields were determined using the following equation:
[formula] • where • Φu is the photochemical quantum yield of the sample • Φu,ref is the photochemical quantum yield of the reference • k is the obtained reaction rate constant of the photoreaction of the sample • kref is the obtained reaction rate constant of the photoreaction of the reference • c is the concentration of the sample • cref is the concentration of the reference • V is the volume of the sample • Vref is the volume of the reference • a is the absorption correction factor of the sample • aref is the absorption correction factor of the reference
The absorption correction factors (a) were determined from the molar absorption coefficients and the green LED emission data obtained by the fluorimeter. […] In other words, the transmittance at each wavelength together with the emission data of the light source can be used to calculate the percentage of absorbed photons according to the following equation:
[formula] • where • T(λ) is the transmittance at each wavelength (determined from the molar absorption coefficients) • F(λ) is the LED emission at each wavelength • λmin, λmax is the LED emission range.
The rate constants of the photoreactions were determined by considering the reactions monoexponential with an initial linear phase (up to 10-20% degradation). First, the concentration vs. HPLC-UV peak were determined for each cargo moieties. […] The rate constants were determined for both the reference (with known Φu) and the sample. For reference, a commonly known BODIPY derivative was used with a similar phenylacetic acid-derived cargo unit (substrate 7 from REF^40), Φu=0.15%:
The calculated photochemical quantum yields together with uncaging cross-sections or quantum efficiencies (product of the molar absorption coefficient at a given wavelength, shown in parentheses and the photochemical quantum yield) are shown in Table 2. In the table, Φu is the photochemical quantum yield of the release; Φdeg is the photochemical quantum yield of degradation; ε×Φu is the uncaging cross-section or quantum efficiency of the release at a given wavelength in parentheses.

[2] = Spectroscopic properties of the target conjugates in PBS; settings: for ε (molar absorption coefficient): at the absorption maximum
Protocol: All starting materials were obtained from commercial suppliers and used without further purification. Analytical thin-layer chromatography (TLC) was performed on silica gel 60 F254 precoated aluminum TLC plates from Merck. Flash column chromatography was performed on Teledyne Isco CombiFlash® Rf+ automated flash chromatographer with silica gel (25-40 μm) from Zeochem. NMR spectra were recorded on a Varian Inova 500 MHz spectrometer. Chemical shifts (δ) are given in parts per million (ppm) using solvent signals or TMS as the reference. Coupling constants (J) are reported in Hertz (Hz). Analytical RP-HPLC-UV/Vis-MS measurements were employed using a Shimadzu LCMS-2020 instrument applying a Gemini C18 column (100×2.00 mm I.D.) in which the stationary phase is […] with a pore size of 110 Å. The chromatograms were detected by a UV-Vis diode array (190-800 nm) and an ESI-MS detector. The following linear gradient elution profile was applied, 0 min 0% B; 6.5 min 100% B; 7 min 0% B; 8 min. 0% B) with eluent A (2% HCOOH, 5% MeCN and 93% water) and B (2% HCOOH, 80% MeCN and 18% water) at a flow rate of 1.0 mL min-1 at 30° C. The samples were dissolved in MeCN—water mixtures. Spectroscopic measurements were performed on a Jasco FP 8300 spectrofluorometer. Quartz cuvettes with path length of 1 cm were used.
The spectroscopic properties of the target conjugates were determined in PBS. […] Compounds with Q=O have absorption bands in the green-yellow region while Q=CMe2 derivatives absorb in the red (up to 700 nm). All of the compounds have moderate to high absorption coefficients and significant fluorescence. The spectroscopic details can be found in Table 1. In the table, λmax means absorption maximum; λem means fluorescence emission maximum; s means molar absorption coefficient (at the absorption maximum).

[3] = Uncaging experiments, LED irradiation followed by HPLC-UV-MS
Protocol: (§1) The uncaging experiments were performed using green (4 W input power, λmax=549 nm half-width: 16 nm, output power: 72 mW), orange (4 W input power, λmax=605 nm half-width: 10 nm, output power: 140 mW) and red (4 W input power, λmax=658 nm half-width: 10 nm, output power: 210 mW) LEDs as light source. Sample solutions were prepared, each containing 1 ml of solvent (90% v/v water-MeCN or 90% PBS-MeCN or 100% methanol for the photochemical quantum yield determination) and 0.1 mM or 0.05 mM concentration of the photoactivatable conjugates. The samples were irradiated for a given time using continuous water cooling for the light source. Then, the samples were transferred to the HPLC-UV-MS system and the chromatograms were recorded. The traces at 195 nm, 254 nm or 369 nm (dependent on the cargo moieties) and at the absorption maxima of the photoremovable protecting groups (530 nm, 570 nm or 640 nm) were compared and the corresponding peaks were integrated and compared to reference calibration sets. The possible photoproducts were identified by their corresponding m/z value and also from the UV/VIS spectra from the DAD-equipped instrument. For the dark stability experiments, the HPLC sample solutions were kept in the dark and chromatograms were recorded multiple times.
The photouncaging was evaluated by HPLC-MS using green (4 W input power, λmax=549 nm half-width: 16 nm, output power: 72 mW), orange (4 W input power, λmax=605 nm half-width: 10 nm, output power: 140 mW) and red (4 W input power, λmax=658 nm half-width: 10 nm, for Q=CMe2 output power: 210 mW) LED irradiation. For all compounds the experiments were performed in 90% water/MeCN mixtures as well as in 90% PBS/MeCN (0.1 mM concentration). In all cases, the irradiation led to the release of the model active agents with significant differences based on the photoremovable protecting group, cargo unit and the connecting chemical moiety as well as on the water content of the uncaging medium. Comparing the green light absorbing target conjugates, irradiation of 39 led to the release of 54% phenylacetic acid in 60 s (FIG. 6b), while 180 s (for 50%) was required for the same result in case of 41. Approximately 65% of phenylacetic acid was released after 180 s of irradiation with orange light from model target conjugate 41 (FIG. 6a). The current state of the art BODIPY derivative (for the structure, see the next section),^20,21 released only 12% phenylacetic acid after irradiation for 1800 s. Contrary to the general expectations that increasing the wavelength diminishes photolysis rates, the uncaging of the redshifted Q=CMe2 derivative 43 was also very effective, reaching >70% release of phenylacetic acid in 120 s after red light irradiation (FIG. 6c). The high efficiency of 43 as a red light-activatable photoremovable protecting group was also compared to a π-extended BODIPY derivative (substrate 7 in REF^21, using methanol as the solvent in a concentration of 0.1 mM), the current state of the art in this region of visible light.
Importantly, except in the case of compounds wherein the connecting chemical moiety was a carbonate moiety (i.e., compound 51, FIG. 6f), the target conjugates were stable in water as well as in PBS for 24 hours in the dark. The stability and uncaging rates of several leaving groups was also assessed. Comparing the most important functional groups (carboxylic acid, amine, phenol, alcohol) in potential active agents connected via the typical linkages in the target conjugates, the carbonate bond was the most labile (compound 51, >70% decomposition in 30 s with red light at 50% power) although the long-term dark stability was poor. None of the other model active agents were released in significant quantities, however, after 24-28 hours in the dark (for dark stability data see FIGS. 6a-6h, right side).
Using HPLC-MS, not only the appearance of the released model active agents could be monitored but also the products of photolysis were detectable. […]

[4] = Dark stability experiments (HPLC); settings: water and PBS, 24 hours in the dark
Protocol: as §1, with “The traces at 195 nm, 254 nm or 369 nm (dependent on the cargo moieties) and at the absorption maxima of the photoremovable protecting groups (530 nm, 570 nm or 640 nm) were compared and the corresponding peaks were integrated and compared to reference calibration sets. The possible photoproducts were identified by their corresponding m/z value and also from the UV/VIS spectra from the DAD-equipped instrument.” left out
Importantly, except in the case of compounds wherein the connecting chemical moiety was a carbonate moiety (i.e., compound 51, FIG. 6f), the target conjugates were stable in water as well as in PBS for 24 hours in the dark. The stability and uncaging rates of several leaving groups was also assessed. […] None of the other model active agents were released in significant quantities, however, after 24-28 hours in the dark (for dark stability data see FIGS. 6a-6h, right side).

Row | SMILES | ε × Φu, uncaging cross-section / quantum efficiency [1] | Φu, uncaging quantum yield [1] [%] | Φdeg, degradation quantum yield [1] [%] | λem (fluorescence emission maximum) [2] [nm] | λmax (absorption maximum) [2] [nm] | ε (molar absorption coefficient) [2] | irradiation time required for 50% release of phenylacetic acid ([3]; green light) [s] | release of phenylacetic acid ([3]; orange light, 180 s) | increase in the photolysis rate versus π-extended BODIPY derivative ([3]; methanol, 0.1 mM, red light) | release of phenylacetic acid ([3]; red light, 120 s) [%] | decomposition ([3]; red light at 50% power, 30 s) [%] | dark stability [4]
1 | CC(OC(=O)Cc1ccccc1)c1c2ccc(=[N+]3CCCC3)cc-2oc2cc(N3CCCC3)ccc12.[I-] (stereo not drawn) [Compound 41, 1-(9-(1-(2-phenylacetoxy)ethyl)-6-(pyrrolidin-1-yl)-3H-xanthen-3-ylidene)pyrrolidin-1-ium iodide] | 1020 M⁻¹ cm⁻¹ | 1.5 | 1.9 | 592 | 570 | 70 000 M^−1cm^−1 | 180 | Approximately 65% |  |  |  | 
2 | CC(OC(=O)Cc1ccccc1)C1=C2C=CC(=[N+]3CCCC3)C=C2C(C)(C)c2cc(N3CCCC3)ccc21.[I-] (stereo not drawn) [Compound 43, 1-(9,9-dimethyl-10-(1-(2-phenylacetoxy)ethyl)-7-(pyrrolidin-1-yl)anthracen-2 (9H)-ylidene)pyrrolidin-1-ium iodide] | 1400 M⁻¹ cm⁻¹ | 1.7 | 2.2 | 674 | 641 | 86 000 M^−1cm^−1 |  |  | approximately 5 fold | > 70 |  | 
3 | CC(OC(=O)Oc1ccccc1)C1=C2C=CC(=[N+]3CCCC3)C=C2C(C)(C)c2cc(N3CCCC3)ccc21.[I-] (stereo not drawn) [Compound 51, 1-(9,9-dimethyl-10-(1-((phenoxycarbonyl)oxy)ethyl)-7-(pyrrolidin-1-yl)anthracen-2 (9H)-ylidene)pyrrolidin-1-ium iodide] | 13 200 M^−1cm^−1 | 18 | 25 | 676 | 643 | 73 300 M^−1cm^−1 |  |  |  |  | > 70 | reduced and poor
